Data on seven compounds can be found in patent US20170022171A1, “2,5-DISUBSTITUTED CYCLOPENTANECARBOXYLIC ACIDS AND THEIR USE” (Bayer Pharma Aktiengesellschaft, priority 2014, published 2017).

pIC50: −log10 of the molar value.

Assay type in all cases: biochemical
Assay [1] addresses T1, mouse MMP-12 (Mus musculus, UniProt P34960).
T1 construct: purchased R&D Systems 3467-MP
Kind of assay: In vitro mouse MMP-12 inhibition test (standard or high-sensitivity). From the text: (§1) The MMP-mediated amidolytic cleavage of a suitable peptide substrate leads to an increase in fluorescent light here too. The signal intensity of the fluorescent light is directly proportional to the enzyme activity. The active concentration of a test compound at which half the enzyme is inhibited (50% signal intensity of the fluorescent light) is reported as the IC50 value.
Recombinant mouse MMP-12 (from R&D Systems, 3467-MP) is autocatalytically activated in accordance with the manufacturer's instructions. 1 μl of the test compound to be analysed (as a solution in DMSO, suitable concentrations, for example, 1 nM to 30 μM) is pipetted into 24 μl of activated enzyme (final concentration, for example, 1 nM) in reaction buffer (50 mM Tris/HCl pH 7.5, 10 mM CaCl2, 150 mM NaCl, 0.05% Brij®-35) in a white 384-hole microtiter plate (MTP). The enzymatic reaction is started by adding the intramolecularly quenched Mca-Lys-Pro-Leu-Gly-Leu-Dpa(Dnp)-Ala-Arg-NH2 substrate (final concentration, for example, 5 μM; R&D Systems, ES-010), so as to result in a total test volume of 50 The course of the MMP-12 reaction is measured by measuring the fluorescence intensity (excitation 320 nm, emission 410 nm) over a suitable period of time (for example over 120 min at a temperature of 32° C.).
In this case, an enzyme concentration ten times lower is used (final concentration, for example, 0.1 nM) in order to achieve an elevated test sensitivity. The incubation period chosen for the test is correspondingly longer (for example 16 hours).

Assay [2] addresses T2, MMP-3 (Homo sapiens, UniProt P08254).
T2 construct: purchased R&D Systems 513-MP
As to the kind of experiment: In vitro MMP-3 inhibition test.
From the text: as §1
Recombinant MMP-3 (from R&D Systems, 513-MP) is chemically activated in accordance with the manufacturer's instructions using APMA. 1 μl of the test compound to be analysed (as a solution in DMSO, suitable concentrations, for example, 1 nM to 30 μM) is pipetted into 24 μl of activated enzyme (final concentration, for example, 2 nM) in reaction buffer (50 mM Tris/HCl pH 7.5, 10 mM CaCl2, 150 mM NaCl, 0.05% Brij®-35) in a white 384-hole microtiter plate (MTP). The enzymatic reaction is started by adding the intramolecularly quenched Mca-Arg-Pro-Lys-Pro-Val-Glu-Nval-Trp-Arg-Lys(Dnp)-NH2 substrate (final concentration, for example, 10 μM; R&D Systems, ES-002), so as to result in a total test volume of 50 The course of the MMP-3 reaction is measured by measuring the fluorescence intensity (excitation 320 nm, emission 410 nm) over a suitable period of time (for example over 120 min at a temperature of 32° C.).

Assay [3] has as its target T3, MMP-9 (Homo sapiens, UniProt P14780).
T3 construct: purchased R&D Systems 911-MP
As to the kind of experiment: In vitro MMP-9 inhibition test.
From the text: as §1
(§2) Recombinant MMP-9 (from R&D Systems, 911-MP) is chemically activated in accordance with the manufacturer's instructions using APMA. 1 μl of the test compound to be analysed (as a solution in DMSO, suitable concentrations, for example, 1 nM to 30 μM) is pipetted into 24 μl of activated enzyme (final concentration, for example, 0.1 nM) in reaction buffer (50 mM Tris/HCl pH 7.5, 10 mM CaCl2, 150 mM NaCl, 0.05% Brij®-35) in a white 384-hole microtiter plate (MTP). The enzymatic reaction is started by adding the intramolecularly quenched Mca-Pro-Leu-Gly-Leu-Dpa(Dnp)-Ala-Arg-NH2 substrate (final concentration, for example, 10 μM; R&D Systems, ES-001), so as to result in a total test volume of 50 μl. The course of the MMP-9 reaction is measured by measuring the fluorescence intensity (excitation 320 nm, emission 410 nm) over a suitable period of time (for example over 120 min at a temperature of 32° C.).

The target of assay [4] is T4, mouse MMP-8 (Mus musculus, UniProt O70138).
T4 construct: purchased R&D Systems 2904-MP
Kind of assay: In vitro mouse MMP-8 inhibition test.
From the text: as §1
Recombinant mouse MMP-8 (from R&D Systems, 2904-MP) is chemically activated in accordance with the manufacturer's instructions using APMA. 1 μl of the test compound to be analysed (as a solution in DMSO, suitable concentrations, for example, 1 nM to 30 μM) is pipetted into 24 μl of activated enzyme (final concentration, for example, 2 nM) in reaction buffer (50 mM Tris/HCl pH 7.5, 10 mM CaCl2, 150 mM NaCl, 0.05% Brij®-35) in a white 384-hole microtiter plate (MTP). The enzymatic reaction is started by adding the intramolecularly quenched Mca-Lys-Pro-Leu-Gly-Leu-Dpa(Dnp)-Ala-Arg-NH2 substrate (final concentration, for example, 5 μM; R&D Systems, ES-010), so as to result in a total test volume of 50 μl. The course of the MMP-8 reaction is measured by measuring the fluorescence intensity (excitation 320 nm, emission 410 nm) over a suitable period of time (for example over 120 min at a temperature of 32° C.).

Assay [5] has as its target T5, MMP-8 (Homo sapiens, UniProt P22894).
T5 construct: purchased R&D Systems 908-MP
As to the kind of experiment: In vitro MMP-8 inhibition test.
From the text: as §1
as §2, with “MMP-8” for “MMP-9”, “908-MP)” for “911-MP)”, “0.5” for “0.1”

T1 sequence (P34960 110-473): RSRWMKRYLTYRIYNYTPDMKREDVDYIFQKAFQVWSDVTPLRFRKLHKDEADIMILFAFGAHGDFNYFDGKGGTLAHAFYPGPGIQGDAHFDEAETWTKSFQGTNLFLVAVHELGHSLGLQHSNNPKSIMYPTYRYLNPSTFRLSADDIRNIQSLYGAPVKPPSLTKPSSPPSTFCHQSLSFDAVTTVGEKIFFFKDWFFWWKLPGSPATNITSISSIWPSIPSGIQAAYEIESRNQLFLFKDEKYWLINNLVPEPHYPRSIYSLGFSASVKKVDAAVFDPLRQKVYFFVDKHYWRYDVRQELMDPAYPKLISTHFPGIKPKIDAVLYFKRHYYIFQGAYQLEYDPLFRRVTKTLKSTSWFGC
T2 sequence (P08254 100-477): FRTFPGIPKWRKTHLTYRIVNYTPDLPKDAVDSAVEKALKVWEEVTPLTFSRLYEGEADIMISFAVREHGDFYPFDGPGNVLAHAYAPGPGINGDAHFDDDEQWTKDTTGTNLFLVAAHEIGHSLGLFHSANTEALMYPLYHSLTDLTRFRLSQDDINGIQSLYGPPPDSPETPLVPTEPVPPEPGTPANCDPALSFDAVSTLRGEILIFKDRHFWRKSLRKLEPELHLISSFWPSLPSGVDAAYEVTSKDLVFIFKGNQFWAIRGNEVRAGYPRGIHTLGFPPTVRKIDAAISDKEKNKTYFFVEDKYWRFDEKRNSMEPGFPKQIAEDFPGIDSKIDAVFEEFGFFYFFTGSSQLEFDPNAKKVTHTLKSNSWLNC
T5 sequence (P22894 101-467): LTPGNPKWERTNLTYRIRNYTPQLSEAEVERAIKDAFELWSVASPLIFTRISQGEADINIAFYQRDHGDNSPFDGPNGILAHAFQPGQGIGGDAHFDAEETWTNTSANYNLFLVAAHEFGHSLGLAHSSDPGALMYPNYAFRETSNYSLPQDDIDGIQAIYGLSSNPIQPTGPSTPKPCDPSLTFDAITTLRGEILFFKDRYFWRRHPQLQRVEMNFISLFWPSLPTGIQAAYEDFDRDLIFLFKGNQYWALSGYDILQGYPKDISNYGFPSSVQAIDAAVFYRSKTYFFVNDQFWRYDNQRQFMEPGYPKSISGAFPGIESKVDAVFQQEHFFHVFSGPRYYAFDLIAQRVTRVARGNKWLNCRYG
T3 sequence (P14780 107-707 limits assumed): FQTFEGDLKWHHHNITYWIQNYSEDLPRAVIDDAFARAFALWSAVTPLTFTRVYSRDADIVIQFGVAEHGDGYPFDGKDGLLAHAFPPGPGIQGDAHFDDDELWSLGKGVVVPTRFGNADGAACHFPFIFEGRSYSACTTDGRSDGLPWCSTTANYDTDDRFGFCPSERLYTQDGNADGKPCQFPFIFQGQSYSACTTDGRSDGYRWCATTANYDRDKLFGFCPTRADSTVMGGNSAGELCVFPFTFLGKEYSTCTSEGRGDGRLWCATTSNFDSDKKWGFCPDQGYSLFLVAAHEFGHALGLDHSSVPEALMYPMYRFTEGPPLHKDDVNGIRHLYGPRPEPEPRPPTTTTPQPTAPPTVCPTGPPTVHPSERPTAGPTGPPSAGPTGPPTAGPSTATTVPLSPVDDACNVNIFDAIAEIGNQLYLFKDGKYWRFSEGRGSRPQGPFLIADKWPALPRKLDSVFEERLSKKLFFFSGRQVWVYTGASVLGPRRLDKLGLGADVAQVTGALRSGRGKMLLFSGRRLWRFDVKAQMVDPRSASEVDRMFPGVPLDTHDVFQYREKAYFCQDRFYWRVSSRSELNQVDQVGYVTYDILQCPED
T4 sequence (O70138 101-465): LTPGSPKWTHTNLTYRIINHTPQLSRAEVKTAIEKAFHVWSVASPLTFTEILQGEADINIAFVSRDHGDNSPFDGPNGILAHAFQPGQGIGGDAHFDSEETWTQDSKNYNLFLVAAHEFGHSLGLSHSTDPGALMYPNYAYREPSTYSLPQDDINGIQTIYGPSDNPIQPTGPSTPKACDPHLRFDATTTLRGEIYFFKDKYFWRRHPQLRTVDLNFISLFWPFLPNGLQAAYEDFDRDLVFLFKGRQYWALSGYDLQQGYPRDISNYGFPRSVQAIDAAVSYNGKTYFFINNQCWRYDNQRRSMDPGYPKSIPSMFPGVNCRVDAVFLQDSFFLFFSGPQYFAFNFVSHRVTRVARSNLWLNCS

Regarding `O=C(O)[C@H]1[C@H](Cn2nnc3ccc(C(F)(F)F)cc3c2=O)CC[C@@H]1C(=O)c1ccc(OCC2CCCCC2)cc1` (racemic) [Example 40, (+/−)-(1RS,2RS,5SR)-2-[4-(Cyclohexylmethoxy)benzoyl]-5-{[4-oxo-6-(trifluoromethyl)-1,2,3-benzotriazin-3(4H)-yl]methyl}cyclopentanecarboxylic acid], the pIC50 in assay [1] was 8.72; in assay [2], 6.74; in assay [3] it was 6.77; in assay [4], 7.60; in assay [5] it was 8.20.

With “(+)-(1RS,2RS,5SR)-2-{4-[(3,4-Dichlorobenzyl)oxy]benzoyl}-5-{[4-oxo-6-(trifluoromethyl)-1,2,3-benzotriazin-3(4H)-yl]methyl}cyclopentanecarboxylic acid [Example 28]”, the pIC50 was 8.15 in assay [1]; 6.60 in assay [2]; 6.59 in assay [3]; 6.92 in assay [4]; 7.37 in assay [5].

`O=C(O)[C@H]1[C@H](Cn2nnc3ccccc3c2=O)CC[C@@H]1C(=O)c1ccc(OCc2cccc(Cl)c2)cc1` (racemic) [Example 2, (+/−)-(1RS,2RS,5SR)-2-{4-[(3-Chlorobenzyl)oxy]benzoyl}-5-[(4-oxo-1,2,3-benzotriazin-3(4H)-yl)methyl]cyclopentanecarboxylic acid]: the negative logarithm of the IC50 (pIC50) in assay [1] was 8.39; in assay [2], 5.68; in assay [3], 6.32; in assay [4] it was 5.85; in assay [5] it was 6.36.

Consider `Cc1cccc(COc2ccc(C(=O)[C@H]3CC[C@@H](Cn4nnc5ccc(C)cc5c4=O)[C@@H]3C(=O)O)cc2)c1` (racemic) [Example 97, (+/−)-(1RS,2RS,5SR)-2-{4-[(3-Methylbenzyl)oxy]benzoyl}-5-[(6-methyl-4-oxo-1,2,3-benzotriazin-3(4H)-yl)methyl]cyclopentanecarboxylic acid], for which the negative logarithm of the IC50 (pIC50) in assay [1] was 8.21; in assay [2], 5.70; in assay [3], 6.13; in assay [4], 5.89; in assay [5], 6.51.

As to `CCCCCCOc1ccc(C(=O)[C@@H]2CC[C@H](Cn3nnc4ccc(C)cc4c3=O)[C@H]2C(=O)O)cc1` (single isomer, unassigned) [Example 121, (+)-(1RS,2RS,5SR)-2-[4-(Hexyloxy)benzoyl]-5-[(6-methyl-4-oxo-1,2,3-benzotriazin-3(4H)-yl)methyl]cyclopentanecarboxylic acid], the pIC50 was 8.40 in assay [1]; 6.39 in assay [2]; 7.24 in assay [3]; 6.92 in assay [4]; 7.74 in assay [5].

Turning to `O=C(O)[C@H]1[C@H](Cn2nnc3ccc(C(F)(F)F)cc3c2=O)CC[C@@H]1C(=O)c1ccc(SCc2ccc(Cl)c(Cl)c2)cc1` (racemic) [Example 79, (+/−)-(1RS,2RS,5SR)-2-{4-[(3,4-Dichlorobenzyl)sulphanyl]benzoyl}-5-{[4-oxo-6-(trifluoromethyl)-1,2,3-benzotriazin-3(4H)-yl]methyl}cyclopentanecarboxylic acid], the pIC50 was 7.46 in assay [1]; 6.10 in assay [2]; 5.49 in assay [3]; 6.12 in assay [4]; 6.55 in assay [5].

`O=C(O)[C@@H]1[C@@H](Cn2nnc3ccc(C(F)(F)F)cc3c2=O)CC[C@H]1C(=O)c1ccc(OCc2ccc(F)cc2)cc1` (single isomer, unassigned) [Example 13, (+)-(1RS,2RS,5SR)-2-{4-[(4-Fluorobenzyl)oxy]benzoyl}-5-{[4-oxo-6-(trifluoromethyl)-1,2,3-benzotriazin-3(4H)-yl]methyl}cyclopentanecarboxylic acid]: the results for the pIC50 in assay [2], in assay [3] and in assay [5] were 7.21, 8.36 and 9.06, respectively.
